Results as given in patent US20100144626A1, “Treatment of Multi-Drug Resistant Bacterial Infections” (priority 2006, published 2010).
≈ marks a conversion by molar mass, not a printed value.

Key:
[1] = in vivo, cited from earlier work
[2] = in vivo; cited from earlier work
[3] = tested on: clinical MRSA and VISA strains; test: MICs for clinical MRSA and VISA strains; assay type: cell-based; details: Staphylococcus aureus; range over strains; read-out: MICs for the clinical MRSA and VISA strains tested
Protocol: In example experiments miconazole nitrate, was dissolved in methanol and econazole nitrate and clotrimazole were dissolved in DMSO and methanol respectively. Other solvents that may be used include caster oil, pyridine, DMSO and 0.9% saline. For IV administration agents may be solubilised in polyethoxylated caster oil, or cyclodextrins such as sulfobutylether7-βcyclodextrin or hydroxypropyl-β-cyclodextrin and lactic acid. Minimum inhibitory concentrations (MICs) of a range of clinical and control bacterial organisms were measured according to BSAC (British Society for Antimicrobial Chemotherapy) guidelines, described briefly as follows;
Stock solutions were prepared at concentrations of 1000 mg/L and 100 mg/L. The appropriate amounts of each stock solution were added to separate Petri dishes give the following final concentrations (after the addition of 20 mL molten agar): 128, 64, 32, 16, 8, 4, 2, 1, 0.5, 0.25, 0.12, 0.06, 0.03, 0.015 mg/L.
The test organisms were grown overnight in 5 mL IST broth. Using a dilution in 0.9% saline of 1:500 for Gram-negative organisms and 1:100 for Gram-positive organisms, the appropriate agar plates were inoculated using a multipoint inoculator. […]
The MIC is the minimum amount of an antibiotic at which there is no visible growth of bacteria. Tiny single colonies or faint hazes were not counted as growth.

MRSA = details: cited from earlier work

Clc1ccccc1C(c1ccccc1)(c1ccccc1)n1ccnc1 [Clotrimazole, 1-[(2-chlorophenyl)diphenylmethyl]-1H-imidazole]
administered dose detected in urine as active drug ([1]; po): Less than 1% | half-life ([1]; po): around 3 hours | absorption following oral administration [1]: well absorbed | concentration in the stratum corneum [2]: 100 mcg/cm3 | concentration in the stratum reticulare [2]: 0.5-1 mcg/cm3 | concentration in the subcutis [2]: 0.1 mcg/cm3

Clc1ccc(COC(Cn2ccnc2)c2ccc(Cl)cc2Cl)c(Cl)c1 (stereo not drawn) [Miconazole, 1-[2-(2,4-dichlorophenyl)-2-[(2,4-dichlorophenyl)methoxy]ethyl]-1H-imidazole]
MIC [3]: 0.25 to 2 mg/L (≈ 0.601 to 4.81 µM) | anti-MRSA activity in presence of lipophilic a-tocopherol (vitamin E) (MRSA; Lee et al. 1999): completely suppressed | minimum inhibitory concentration against MRSA (MRSA; Lee et al., J. Microbiol. Biotechnol. 9 (1999), estimated): 0.78 mg/L (≈ 1.87 µM)
